Measured values as given in patent publication US9126984B2, “4-(indol-3-yl)-pyrazole derivatives, pharmaceutical compositions and methods for use” (ITEOS THERAPEUTICS, priority 2013, dated 2015).

Key:
[1] = target: T1, human recombinant TDO2 enzyme (Homo sapiens, UniProt P48775); test: Assay for TDO2 enzymatic activity determination; format: biochemical; details: human recombinant TDO2, L-Trp 1 mM, room temperature one hour, kynurenine absorbance at 480 nm
T1 construct: made in house
Description: To measure the TDO2 activity, the reaction mixture contained (final concentrations) potassium phosphate buffer (50 mM, pH 7.5), ascorbic acid (0.25 M), methylene blue (0.125 μM), catalase (40 units/mL, from bovine liver, Sigma), and human recombinant TDO2 enzyme (prepared as described in Dolusic et al. J. Med. Chem.; 2011, 54, 5320-5334; 0.9 μg) without or with the compounds of the present invention embodiments at the indicated concentrations (total volume 112.5 μL). The reaction was initiated by the addition of 37.5 μL of L-Trp (final concentration 1 mM) at room temperature. The reaction was conducted at room temperature during one hour and stopped by the addition of 30 μL of 30% (w/v) trichloroacetic acid.
To convert N-formylkynurenine into kynurenine, the reaction mixture was incubated at 65° C. for 30 min. Then 150 μL of the reaction mixture was mixed with 120 μL, of 2.5% (w/v) 4-(dimethylamino)-benzaldehyde in acetic acid and incubated for 5 min at room temperature. Kynurenine concentrations were determined by measuring the absorbance at 480 nm. A standard curve was made with pure kynurenine. The TDO activity was measured as described above using ten serial concentrations of certain embodiments of the compounds of the present invention. Data were fitted using the Prism software (GraphPad Software, Inc.).

[2] = target: T2, murine mastocytoma P815 cells overexpressing hTDO2 (Homo sapiens, UniProt P48775); test: Cellular assay for TDO2 activity determination; format: cell-based; details: P815 cells overexpressing hTDO2, overnight incubation at 37° C., kynurenine absorbance at 480 nm
T2 construct: expressed in transfected cells; host or cells: murine mastocytoma P815 cells
T2 sequence (P48775 whole entry): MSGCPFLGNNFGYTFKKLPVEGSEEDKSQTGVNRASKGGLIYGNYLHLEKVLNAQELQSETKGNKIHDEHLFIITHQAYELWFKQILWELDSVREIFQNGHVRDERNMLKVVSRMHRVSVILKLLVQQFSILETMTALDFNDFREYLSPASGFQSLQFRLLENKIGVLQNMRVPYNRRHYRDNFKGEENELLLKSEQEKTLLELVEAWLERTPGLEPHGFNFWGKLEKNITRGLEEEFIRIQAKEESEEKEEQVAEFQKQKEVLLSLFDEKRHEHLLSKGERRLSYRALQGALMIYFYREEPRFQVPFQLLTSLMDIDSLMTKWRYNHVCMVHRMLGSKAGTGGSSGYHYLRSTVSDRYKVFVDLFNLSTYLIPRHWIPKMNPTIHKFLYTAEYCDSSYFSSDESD
Description: The assay was performed in 96-well flat bottom plates seeded with murine mastocytoma P815 cells overexpressing hTDO2 (prepared as described in Pilotte et al., PNAS, 2012, 109(7), 2497-2502), at a concentration of 5×10^4 cells/well in a final volume of 200 μL. To determine TDO or IDO activity, the cells were incubated overnight at 37° C. at 5% CO2 in IMDM (Invitrogen) supplemented with 2% FBS and 2% penicillin/streptomycin in the presence of the compounds of the present invention, at different concentrations.
The plates were then centrifuged 5 min at 1000 rpm, and 100 μL of the supernatant were collected in a conical plate, 30 uL of TCA 30% were added and a further centrifugated at 3000×g for 10 minutes. 100 μL of the supernatant were collected in a flat bottomed plate and 100 μL of 2% (w/v) 4-(dimethylamino)-benzaldehyde in acetic acid and incubated for 5 min at room temperature. Kynurenine concentrations were determined by measuring the absorbance at 480 nm. A standard curve was made with pure kynurenine. The TDO activity was measured as described above using ten serial concentrations of the compounds of the present invention. Data were fitted using the Prism software (GraphPad Software, Inc.).

T1 sequence (P48775 whole entry): as above

Row | Structure (SMILES) | IC50 [1] [nM] | IC50 [2] [nM] | melting point [°C]
1 | CC(Cn1cc(-c2c[nH]c3cc(F)ccc23)cn1)C(N)=O (single isomer, unassigned) [Example 35, 3-(4-(6-fluoro-1H-indol-3-yl)-1H-pyrazol-1-yl)-2-methylpropanamide] | 1000 to 10000 | < 1000 | 184.5 to 185.5
2 | NC(=O)CCn1cc(-c2c[nH]c3cc(F)ccc23)cn1 [Example 7, 3-(4-(6-fluoro-1H-indol-3-yl)-1H-pyrazol-1-yl)propanamide] | < 1000 | < 1000 | 173.3 to 175
3 | CNCCn1cc(-c2c[nH]c3cc(F)ccc23)cn1 [Example 24, 2-(4-(6-fluoro-1H-indol-3-yl)-1H-pyrazol-1-yl)-N-methylethanamine] | < 1000 | 1000 to 10000 | 94.2 to 95.2
4 | CS(=O)(=O)CCn1cc(-c2c[nH]c3cc(F)ccc23)cn1 [Example 31, 6-fluoro-3-(1-(2-(methylsulfonyl)ethyl)-1H-pyrazol-4-yl)-1H-indole] | 1000 to 10000 | < 1000 | 153.3 to 155.1
5 | Fc1cc2[nH]cc(-c3cnn(CC4CCNCC4)c3)c2cc1F [Example 44, 5,6-difluoro-3-(1-(piperidin-4-ylmethyl)-1H-pyrazol-4-yl)-1H-indole] | 1000 to 10000 | < 1000 | 167.1 to 168.9
6 | Fc1ccc2c(-c3cnn(CC4CCOCC4)c3)c[nH]c2c1 [Example 58, 6-fluoro-3-(1-((tetrahydro-2H-pyran-4-yl)methyl)-1H-pyrazol-4-yl)-1H-indole] | 1000 to 10000 | 1000 to 10000 | 138.9 to 139.6
7 | O=S1(=O)CCC(Cn2cc(-c3c[nH]c4cc(F)ccc34)cn2)CC1 [Example 60, 4-((4-(6-fluoro-1H-indol-3-yl)-1H-pyrazol-1-yl)methyl)tetrahydro-2H-thiopyran 1,1-dioxide] | 1000 to 10000 | 1000 to 10000 | 193.1 to 194.1

Second part, the compound after the results:

Row | IC50 [1] [nM] | IC50 [2] [nM] | melting point [°C] | Structure (SMILES)
8 | 1000 to 10000 | < 1000 | 240.1 to 241.8 | Fc1ccc2c(-c3cnn(C4CCNCC4)c3)c[nH]c2c1 [Example 78, 6-fluoro-3-(1-(piperidin-4-yl)-1H-pyrazol-4-yl)-1H-indole]
9 | 1000 to 10000 | < 1000 | 183.2 to 184.5 | CC(=O)N1CCC(n2cc(-c3c[nH]c4cc(F)ccc34)cn2)CC1 [Example 89, 1-(4-(4-(6-fluoro-1H-indol-3-yl)-1H-pyrazol-1-yl)piperidin-1-yl)ethanone]
10 | 1000 to 10000 | – | 223 to 224.6 | CN(C)C(=O)N1CCC(n2cc(-c3c[nH]c4cc(F)ccc34)cn2)CC1 [Example 90, 4-(4-(6-fluoro-1H-indol-3-yl)-1H-pyrazol-1-yl)-N,N-dimethylpiperidine-1-carboxamide]
11 | 1000 to 10000 | < 1000 | 222.8 to 223.7 | CN1CCC(n2cc(-c3c[nH]c4cc(F)ccc34)cn2)CC1 [Example 91, 6-fluoro-3-(1-(1-methylpiperidin-4-yl)-1H-pyrazol-4-yl)-1H-indole]
